# Values quoted from earlier work as cited in patent publication US20030104981A1 (priority 1995, published 2003).
# Key:
# LB and IM-9 = conditions: cited from earlier work
# LB lymphoma cell = conditions: cited from earlier work
# [1] = poster presentation, 1992; cited from earlier work
# [2] = assumed; cited from earlier work
# IDE = IDE (Homo sapiens, UniProt P14735); conditions: cited from earlier work
substance,measurement,setting,value
A8 His B10 Glu B27 His (code name H2) insulin [Radoyka H2],binding to LB and IM-9,LB and IM-9,bound essentially irreversibly
same,mitogenic potency (literature),LB lymphoma cell,most potent mitogen
B10 Asp insulin: B10 His replaced by Asp in native insulin,mitogenic effect,[1],significantly increased mitogenic effect
des-(B26-B30)-[Glu-B^10; Tyr-B^25—NH2] insulin analogue,"activity, times more active than native insulin",[2],at least 20 times
rat insulin analogue at B16 Tyr→Asp replacement: engineered rat insulin analogue at B16 Tyr→Asp replacement (group in Geneva),susceptibility to cleavage by IDE,IDE,unchanged susceptibility to cleavage by IDE
